“Also recorded” adds a separate entry of the source.
Tests used:
[1] = MTT cell viability assay (cytotoxicity); type: cell-based, human; settings: human, SH-SY5Y neuroblastoma cells, 1–500 μM, 24 h, MTT
Experimental: (§1) The effects of the newly synthesized N-pyrrolyl-hydrazone derivatives on the cellular viability of neuronal SH-SY5Y cells were evaluated, and the corresponding IC50 values were calculated. In the current study, the cells were seeded at density 2 × 10^4 and were treated with the test compounds at concentrations 1–500 μM for 24 h.
(§2) Human neuroblastoma cell line SH-SY5Y was purchased from European Collection of Cell Cultures (ECACC, Salisbury, UK). SH-SY5Y cells were cultivated in an RPMI 1640 medium supplemented with 10% heat-inactivated FBS, 2 mM L-glutamine, and 1% antibiotics (penicillin/streptomycin). The cell line was incubated at 37 °C with 5% of CO2, and the culture’s medium was replaced with a time interval of 2–3 days.
(§3) The SH-SY5Y cells were plated for 24 h at 37 °C on 96-well plates at a density of 2 × 10^4 cells per well to confluence. After 24 h, the cells were treated with the compounds (1–500 μM). MTT assay was performed to measure the metabolic activity in living cells. The mitochondria succinate dehydrogenase system of living cells metabolized yellow-colored, water-soluble, tetrazolium salt MTT (3-(4,5-dimethylthiazol2-yl)-2,5-diphenyltetrazolium bromide to a purple insoluble formazan crystal. The cells were incubated with the test solutions for 24 h, the MTT solution (10 mg/mL in PBS) was then added to each well, and the mixture was incubated at 37 °C for 3 h. Thereafter, the MTT solution was carefully aspirated, and the obtained formazan crystals were dissolved by the addition of […] DMSO. The cell viability was determined by measuring the optical density −570–690 nm in a multiplate reader Synergy 2 (BioTek Instruments, Inc., Highland Park, Winooski, VT, USA).

[2] = DPPH radical scavenging assay; type: biochemical; settings: 1 mg/mL in methanol, 30 min, 517 nm
Experimental: The 1,1-diphenyl-2-picrylhydrazyl (DPPH) radical scavenging activity of the newly synthesized derivatives was determined at one concentration—1 mg/mL. Trolox was used as a standard.
The scavenging assay of the title compounds against DPPH radical was carried out by the widely employed protocol of Brand-Williams et al.. Briefly, a single concentration of 1 mg/mL for each synthesized compound in methanol was obtained. Subsequent addition of 1 mL of the methanol solution of DPPH (1 mmol/L) was performed. The reaction mixtures were incubated in the dark for 30 min. The absorbance was measured at 517 nm. Three measurements were carried out for each sample; 6-Hydroxy-2,5,7,8- tetramethylchroman-2-carboxylic acid (Trolox) was applied as a standard. The percentage inhibition of the tested samples was calculated by the following Formula (3):DPPHscavenging activity = Abscontrol − Abssample/Abscontrol × 100%(3) where Abscontrol is the absorbance of the DPPH radical in methanol, and Abssample is the absorbance of the DPPH radical solution mixed with the sample.

[3] = ABTS radical scavenging assay; type: biochemical; settings: for ABTS scavenging activity: 1 mg/mL in methanol, 10 min, 734 nm; for radical scavenging effect (in words): 1 mg/mL, structure-activity discussion of the ABTS/DPPH results
Experimental: During the 2,2′-azino-bis(3-ethylbenzothiazoline-6-sulphonic acid) (ABTS) assay, the discoloration of the initial color could be detected at 734 nm.
The ABTS radical tests were measured according to a modified method of Arnao et al.. The test solutions were dissolved in methanol (1 mg/mL) at ambient temperature. The radical cation of ABTS (ABTS^+•) was created by mixing 7 mmol/L solution of ABTS and 2.4 mmol/L solution of potassium persulphate, which were set to react for 14 h in the dark at room temperature. The working solutions consisted of 2 mL of the stock solution diluted in 50 mL of methanol with an absorbance of […] units at 734 nm. Then, 1 mL of the ABTS working solution was allowed to react with the title compounds for 10 min, with a subsequent absorbance determination. The inhibition percentages were evaluated by applying the same formula as the DPPH assay (4). ABTSscavenging activity = Abscontrol − Abssample/Abscontrol × 100%(4) where Abscontrol is the absorbance of the ABTS radical in methanol, and Abssample is the absorbance of the ABTS radical solution mixed with the sample.

SH-SY5Y cells [4] = test: H2O2-induced oxidative stress model, protection by MTT; type: cell-based, human; settings: H2O2 1 mM, 15 min; for protection at the lowest tested concentration (in words): 1 µM pre-incubation 90 min; for protective effect against H2O2-induced oxidative stress (in words): 1, 10, 20 µM pre-incubation 90 min
Experimental: The cells were pre-incubated with the tested compounds at concentrations 1, 10, and 20 µM for 90 min. Melatonin was used as a reference compound because of its well-established neuroprotective effects in various in vitro and in vivo models. After 90 min pre-incubation with the test substances, SH-SY5Y cells were exposed to H2O2 (1 mM, 15 min), as described in the Materials and Methods section.
as §2
For the H2O2-induced oxidative stress model, SH-SY5Y cells were seeded in 96-well plates at a density of 3.5 × 10^4/well in 100 μL for 24 h. Afterwards, the cell medium was aspirated, and the cells were treated with different concentrations of tested compounds (1, 10, 20 µM) for 90 min; then, the SH-SY5Y cells were washed with phosphate-buffered saline (PBS) and were exposed to the oxidative stress (H2O2 1 mM in PBS, 15 min). The contents of all wells were changed with culture medium. After 24 h, the amount of attached viable cells was evaluated by MTT assay. Negative controls (cells without hydrogen peroxide treatment) were considered as 100% protection, and hydrogen-peroxide-treated cells as 0% protection.

SH-SY5Y cells [5] = test: MTT cell viability assay (cytotoxicity); type: cell-based, human
Experimental: as §1, §2, §3

melting point [°C]	Structure (SMILES)	IC50 at 24 h [1] [µM]	DPPH scavenging activity [2] [%]	ABTS scavenging activity [3] [%]	protection at the lowest tested concentration (in words) (SH-SY5Y cells [4])	protective effect against H2O2-induced oxidative stress (in words) (SH-SY5Y cells [4])	toxicity relative to 7d (times higher) (SH-SY5Y cells [5]; from IC50 values) [times]	radical scavenging effect (in words) [3]	cytotoxicity (in words) (SH-SY5Y cells [5]; 24 h)
181.4 to 184.6	CCOC(=O)c1cc(-c2ccc(Br)cc2)n(CCC(=O)N/N=C/c2ccc(Cl)cc2)c1C [8b, (E)-ethyl 5-(4-bromophenyl)-1-(3-(2-(4-chlorobenzylidene)hydrazinyl)-3-oxopropyl)-2-methyl-1H-pyrrole-3-carboxylate]	57.4							
	Cc1c(C)c2c(c(C)c1O)CCC(C)(C(=O)O)O2 (stereo not drawn) [Trolox, 6-Hydroxy-2,5,7,8-tetramethylchroman-2-carboxylic acid, reference compound]		94						
191.9 to 194.4	CCOC(=O)c1cc(-c2ccc(Br)cc2)n(CC(=O)N/N=C/c2cc(OC)c(O)c(OC)c2)c1C [7d, (E)-ethyl 5-(4-bromophenyl)-1-(2-(2-(4-hydroxy-3,5-dimethoxybenzylidene)hydrazine-yl)-2-oxoethyl)-2-methyl-1H-pyrrole-3-carboxylate]	99.6	24	83	statistically significant protection	better protection in all tested concentrations than the reference compound melatonin; also recorded: stronger protective effects			
	COc1ccc2[nH]cc(CCNC(C)=O)c2c1 [Melatonin, reference compound]	> 500				dose-dependent protective effects			
212 to 213.3	CCOC(=O)c1cc(-c2ccc(Br)cc2)n(CCC(=O)N/N=C/c2ccc(N(C)C)cc2)c1C [8a, (E)-ethyl 5-(4-bromophenyl)-1-(3-(2-(4-(dimethylamino)benzylidene)hydrazinyl)-3-oxopropyl)-2-methyl-1H-pyrrole-3-carboxylate]	56.3		48					
196.6 to 197.6	CCOC(=O)c1cc(-c2ccc(Br)cc2)n(CCC(=O)N/N=C/c2cc(OC)c(O)c(OC)c2)c1C [8d, (E)-ethyl 5-(4-bromophenyl)-1-(3-(2-(4-hydroxy-3,5-dimethoxybenzylidene) hydrazine-yl)-3-oxopropyl)-2-methyl-1H-pyrrole-3-carboxylate]	57.3	19	89			1.7		
170 to 171.9	CCOC(=O)c1cc(-c2ccc(Br)cc2)n(CCC(=O)N/N=C/c2ccc(OC)cc2OC)c1C [8e, (E)-ethyl 5-(4-bromophenyl)-1-(3-(2-(2,4-dimethoxybenzylidene)hydrazinyl)-3-oxopropyl)-2-methyl-1H-pyrrole-3-carboxylate]	91.1				lower antioxidant protection; also recorded: lower than melatonin		lack of radical scavenging effects	
206 to 207.6	CCOC(=O)c1cc(-c2ccc(Br)cc2)n(CC(=O)N/N=C/c2ccc(OC)cc2OC)c1C [7e, (E)-ethyl 5-(4-bromophenyl)-1-(2-(2-(2,4-dimethoxybenzylidene)hydrazinyl)-2-oxo-ethyl)-2-methyl-1H-pyrrole-3-carboxylate]	63.1			statistically significant protection			lack of radical scavenging effects	
245.9 to 247.2	CCOC(=O)c1cc(-c2ccc(Br)cc2)n(CC(=O)N/N=C/c2ccc([N+](=O)[O-])cc2)c1C [7c, (E)-ethyl 5-(4-bromophenyl)-2-methyl-1-(2-(2-(4-nitrobenzylidene)hydrazinyl)-2-oxo-ethyl)-1H-pyrrole-3-carboxylate]	> 500				most potent protection; also recorded: stronger protective effects			non-toxic
229.4 to 231.2	CCOC(=O)c1cc(-c2ccc(Br)cc2)n(CC(=O)N/N=C/c2ccc(Cl)cc2)c1C [7b, (E)-ethyl 5-(4-bromophenyl)-1-(2-(2-(4-chlorobenzylidene)hydrazinyl)-2-oxoethyl)-2-methyl-1h-pyrrole-3-carboxylate]	67.6						negligible effect	
211.4 to 213.6	CCOC(=O)c1cc(-c2ccc(Br)cc2)n(CC(=O)N/N=C/c2ccc(N(C)C)cc2)c1C [7a, (E)-ethyl 5-(4-bromophenyl)-1-(2-(2-(4-(dimethylamino)benzylidene)hydrazinyl)-2-oxoethyl)-2-methyl-1H-pyrrole-3-carboxylate]	55.8		22					
214.4 to 217.1	CCOC(=O)c1cc(-c2ccc(Br)cc2)n(CCC(=O)N/N=C/c2ccc([N+](=O)[O-])cc2)c1C [8c, (E)-ethyl 5-(4-bromophenyl)-2-methyl-1-(3-(2-(4-nitrobenzylidene)hydrazinyl)-3-oxopropyl)-1H-pyrrole-3-carboxylate]	58.2							
